Assay [1] concerns HIF-1α, HIF-2α, GLUT-1, CA-IX. Briefly: Immunoblot of HIF and target proteins in VHL knockdown cells expressing HIF-1α (P564A) / HIF-2α (P405A; P531A) mutants. It is filed as cell-based, human. The following applies: SN12C VHL knockdown cells with HIF mutants lacking 5'TOP, 24 hours. As for the experimental part: FIGS. 4A-4C. Rescue of CCI-779 growth suppression by HIF-1-α and HIF-2-α prolyl hydcroxylase mutants. SN12C-CSCG-VHLshRNA cells stably infected with the prolyl hydroxylation defective cDNA mutants p-Babe-puro-HA-HIF-1α (P564A), HIF-2α (P405A; P531A) or backbone vector were treated with CCI-779 or vehicle and harvested 24 hours later. (a) Lysates were subjected to immunoblotting for HIF-1α, HIF-2α, GLUT-1, CA-IX, p-eIF4G, p-S6 and β-Actin as loading control. (b) SN12C-VHLshRNA, SN12C-VHLshRNA-HIF-1α mutant, SN12C-VHLshRNA-HIF-2α mutant cells (1×10^5) were cultured in 10% serum rich media, in the presence of vehicle, 1 or 10 nM of CCI-779 for 5 days. Cell growth was measured by cell counts (n=3). […]
Cells and xenograft tumors were lysed in ECB lysis buffer (see, e.g. Kondo et al., Cancer Cell 1, 237-46 (2002)) or high-detergent buffer (2% SDS), (see, e.g. Chen et al., Nat Med 10, 33-9 (2004)), respectively, supplemented with complete protease and phosphatase inhibitor cocktails (Calbiochem). […] Bound antibody was detected using enhanced chemiluminescence (ECL, Amersham). For VEGF ELISA quantification, cells were plated in 6 well plates (1×10^5 per well). […] Thirty-six hours later, VEGF ELISA (R&D Systems) was performed according to the manufacturer's instructions, using a Fisher Plate reader. […]

A further assay has as its system VEGF. Briefly: VEGF immunohistochemistry on xenograft tumors. The following applies: CCI-779 treated vs vehicle. It is filed as in vivo, SCID mice. As for the experimental part:
FIGS. 2A-2C. Effects of VHL knockdown on angiogenesis. (a) Microvessel density was quantified by CD-31 immunolabeling (arrows) in the xenograft tumors, and difference between CCI-779 treated (+) and vehicle (−) treated mice quantified (n=6 in each group). P<0.0033 for microvessel density counts in VHL shRNA compared to vector only (see blue bars). (b) Similar number of cells were plated and maintained in 10% serum rich media, in the presence (+) or absence (−) of 10 nM CCI-779. Thirty-six hours later, conditioned media was analyzed by anti-VEGF ELISA and cell extracts prepared for protein quantification. VEGF values were normalized to total cellular protein. Error bars equal one standard deviation (n=3). (c) Immunohistochemistry for VEGF protein was performed on paraffin embedded tumor xenografts from vehicle and CCI-779 treated mice.
Xenograft tumor samples were fixed in 10% buffered formalin and embedded in paraffin. […] Microvessel density was quantified by as described previously (Weidner, N. et al. J Natl Cancer Inst 84, 1875-87 (1992)). Briefly, microvessel density was determined by light microscopy in areas of the xenograft tumor containing highest numbers of capillaries and small venules (microvessels) per area (i.e. neovascular “hotspots”) by scanning the tumor sections at low power (40× and 100×). […]

The source of these data is US9261498B2, “Biomarker for sensitivity to mTOR inhibitor therapy in kidney cancer” (The Regents of the University of California, priority 2005, dated 2016).

Entries after “also recorded” stand apart in the source; their conditions may differ.

As for `CO[C@H]1C[C@@H]2CC[C@@H](C)[C@@](O)(O2)C(=O)C(=O)N2CCCC[C@H]2C(=O)O[C@H]([C@H](C)C[C@@H]2CC[C@@H](OC(=O)C(C)(CO)CO)[C@H](OC)C2)CC(=O)[C@H](C)/C=C(\C)[C@@H](O)[C@@H](OC)C(=O)[C@H](C)C[C@H](C)/C=C/C=C/C=C/1C` [CCI-779], the “levels of HIF mutants and downstream targets GLUT-1 and CA-IX” value in assay [1] is given as “stably expressed in the presence or absence of CCI-779; also recorded: not affected”. Also, the “VEGF protein expression in VHL knockdown xenografts” value with VEGF is “reversed; also recorded: reduced”.
